Earlier results on one molecule are cited in patent US20260229307A1, “CLEAVED NEOEPITOPES” (IOGENETICS, LLC, priority 2023, published 2026).

The conditions of data set [1]: human muscular dystrophy trial.
For data set [2] the following is noted: relative to E64.

Molecules are shown by their SMILES.

Take `CCOC(=O)[C@H]1O[C@@H]1C(=O)N[C@@H](CC(C)C)C(=O)NCCC(C)C` [aloxistatin]: in data set [1], the safety in humans result is “demonstrate the safety”. Also, the “cell permeability and adsorption” value in data set [2] was “improved cell permeability and adsorption”.
